CC[n+]1ccccc1.F[P-](F)(F)(F)(F)F
solubility (mole fraction)
Conditions | in ethanol | in water
278.15 K | 8.4e-05 | 0.000474
283.15 K | 0.000121 | 0.000581
288.15 K | 0.000171 | 0.000711
293.15 K | 0.000224 | 0.000857
298.15 K | 0.000324 | 0.00105
303.15 K | 0.000561 | 0.0013
308.15 K | 0.00061 | 0.00159
313.15 K | 0.000718 | 0.00186
318.15 K | 0.000976 | 0.00216
323.15 K | 0.0015 | 0.0026
328.15 K | 0.00189 | 0.00325
333.15 K | 0.00252 | 0.00387
338.15 K | 0.00308 | 0.00454
343.15 K | 0.00389 | 0.00535
